Data from US7772216B2, “Protein kinase and phosphatase inhibitors and methods for designing them” (The Research Foundation of State University of New York, priority 2001, dated 2010).
“And” between values parts separate entries of the source, which are not always exact repeats. Equal values may be shown once. Read-outs that look alike come from different tables or passages of the source. Values belong to the compound of their own block, whether it stands above or below them. Starred links: 1 amine or outer side, 2 acyl side, 3 side chain; linkers in the order of their positions; H or OH if unused. Non-standard residues stand in square brackets, D forms with d. Residues, ends and D or L forms follow the SMILES beside them. X6 = NS(=O)(=O)CC[C@H](N[*:1])C(=O)[*:2]; X2 = O=C([C@@H](CB(O)O)N[*:1])[*:2]; X3 = O=C([C@H](CCB(O)O)N[*:1])[*:2]; X1 = O=C([C@H](CB(O)O)N[*:1])[*:2]

Legend:
EGFRTK = EGFRTK (Homo sapiens, UniProt P00533); assay: EGFRTK inhibition; type: biochemical; conditions: % inhibition at 10 micromolar compound
Excerpt: (§1) Blanks for a particular enzyme indicate that inhibition was not found.

pp60^c-src = pp60^c-src (Homo sapiens, UniProt P12931); assay: Cellular Mimetic Src assay (RR-SRC phosphorylation); conditions: for inhibition at 45 µM: inhibitor at 45 μM
PTP-1B = molecular target: T1, PTP-1B (Homo sapiens, UniProt P18031); assay: PTP-1B inhibition; type: biochemical; conditions: % inhibition at 10 micromolar compound
T1 sequence (P18031 1-435): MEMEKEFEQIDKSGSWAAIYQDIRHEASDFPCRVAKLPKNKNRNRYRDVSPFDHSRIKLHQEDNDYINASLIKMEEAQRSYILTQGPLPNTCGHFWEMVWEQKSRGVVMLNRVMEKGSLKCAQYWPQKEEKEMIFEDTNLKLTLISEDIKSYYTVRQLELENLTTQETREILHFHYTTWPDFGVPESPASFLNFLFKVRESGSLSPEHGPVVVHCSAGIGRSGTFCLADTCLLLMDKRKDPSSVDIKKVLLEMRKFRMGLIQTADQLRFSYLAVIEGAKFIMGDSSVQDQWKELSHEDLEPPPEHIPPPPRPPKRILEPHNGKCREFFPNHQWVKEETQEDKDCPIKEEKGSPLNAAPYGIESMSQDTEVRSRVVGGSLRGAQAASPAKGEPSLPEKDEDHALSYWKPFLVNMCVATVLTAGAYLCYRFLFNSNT
Excerpt: as §1

PKA [1] = molecular target: T2, PKA (Homo sapiens, UniProt P17612); assay: Literature Mimetic PKA assay; type: biochemical; conditions: for Ki: Literature Mimetic (L) conditions, pentapeptide PKA inhibitors, read-out: Ki; for IC50: Literature Mimetic
Excerpt: (§2) The boronic acid inhibitors 21-24 have two Arg's in their sequence also and therefore will bind to the phosphocellulose paper in addition to Kemptamide (although not as consistently or completely due to one less positive charge). Consequently, when analyzed as inhibitors, the amount of phosphorylated Kemptamide produced was not only counted, but also the amount of phosphorylated inhibitor simultaneously produced (e.g. see 26 below). The net result is that distorted IC50 curves are obtained which show net “stimulation” at higher inhibitor concentrations in some cases. […] The underlying substrate behavior of these “inhibitors” makes an accurate measurement of their inhibition potency impossible with the current assay. However, it does appear from the data that homologating the boronic acid functionality out with only CH2 groups (homologations with boronic acid non-peptide Src inhibitors may also be carried out) decreases the binding affinity and ability to function as a substrate.

PKA [2] = molecular target: T2, PKA; assay: Cellular Mimetic PKA assay; type: biochemical; conditions: for % sti (stimulation) / inhibition at 2000 µM: 2000 μM inhibitor, C; for IC50: Cellular Mimetic
Excerpt: as §2
Phosphorylated Kemptamide is SEQ. ID. No. 6. Phosphorylated 22 is SEQ. ID. No. 4. […] The graphs show their respective rates and levels of phosphorylation with the typical loss of initial velocity kinetics with time (due to substrate depletion and end product inhibition), analogous to a standard L-Ser substrate such as Kemptamide. The comparison of 21 to 22 shown was done in the same assay run, at identical boronic acid substrate concentrations, and with identical Cellular Mimetic assay solutions so that the cpm's could be directly compared. […] That the boronic acid moiety would be phosphorylated by PKA was surprising, but it is even more surprising that the phosphonic-boronic acid mixed anhydride produced (e.g. 26) was stable enough to survive the pH 7.2/37° C. assay incubation and then be isolated by binding to phosphocellulose paper after acid quenching of the reaction with 10% TCA and washing the phosphocellulose paper with 25 mM phosphoric acid (3×). An STN substructure search was run on mixed anhydrides of phosphoric and boronic acids and found only three references to experiments and theoretical calculations for the analogous putative (but not proven) anhydride formed from boric acid and phosphoric acid as a solid surface impregnated catalyst for the partial oxidation of ethane to acetaldehyde at 823° K. (Zhanpeisov & Otsuka, 1992, Otsuka et al., 1992, Murakami et al., 1990). However, this highly unusual anhydride has never before been synthesized free of a solid surface, isolated, or characterized. Thus, this is a novel enzymatic reaction and chemical entity with interesting possibilities for protein kinase inhibitor designs.

[3] = read-out: % Inhibition at 100 μM (std. dev.)
[4] = 0 h preincubation, read-out: IC50 μM (cond. L, 0 h preincubation)
[5] = 0 h preincubation, * very distorted IC50 curve, read-out: IC50 μM (cond. C, 0 h preincubation)
[6] = read-out: % Inhibition of 2 mM RR-src at Inhibitor Concentration (100 μM)
[7] = IC50 μM (cond. L, 4 h preincubation), 4 h preincubation, * very distorted IC50 curve

Chain of EGFRTK (P00533 25-1210): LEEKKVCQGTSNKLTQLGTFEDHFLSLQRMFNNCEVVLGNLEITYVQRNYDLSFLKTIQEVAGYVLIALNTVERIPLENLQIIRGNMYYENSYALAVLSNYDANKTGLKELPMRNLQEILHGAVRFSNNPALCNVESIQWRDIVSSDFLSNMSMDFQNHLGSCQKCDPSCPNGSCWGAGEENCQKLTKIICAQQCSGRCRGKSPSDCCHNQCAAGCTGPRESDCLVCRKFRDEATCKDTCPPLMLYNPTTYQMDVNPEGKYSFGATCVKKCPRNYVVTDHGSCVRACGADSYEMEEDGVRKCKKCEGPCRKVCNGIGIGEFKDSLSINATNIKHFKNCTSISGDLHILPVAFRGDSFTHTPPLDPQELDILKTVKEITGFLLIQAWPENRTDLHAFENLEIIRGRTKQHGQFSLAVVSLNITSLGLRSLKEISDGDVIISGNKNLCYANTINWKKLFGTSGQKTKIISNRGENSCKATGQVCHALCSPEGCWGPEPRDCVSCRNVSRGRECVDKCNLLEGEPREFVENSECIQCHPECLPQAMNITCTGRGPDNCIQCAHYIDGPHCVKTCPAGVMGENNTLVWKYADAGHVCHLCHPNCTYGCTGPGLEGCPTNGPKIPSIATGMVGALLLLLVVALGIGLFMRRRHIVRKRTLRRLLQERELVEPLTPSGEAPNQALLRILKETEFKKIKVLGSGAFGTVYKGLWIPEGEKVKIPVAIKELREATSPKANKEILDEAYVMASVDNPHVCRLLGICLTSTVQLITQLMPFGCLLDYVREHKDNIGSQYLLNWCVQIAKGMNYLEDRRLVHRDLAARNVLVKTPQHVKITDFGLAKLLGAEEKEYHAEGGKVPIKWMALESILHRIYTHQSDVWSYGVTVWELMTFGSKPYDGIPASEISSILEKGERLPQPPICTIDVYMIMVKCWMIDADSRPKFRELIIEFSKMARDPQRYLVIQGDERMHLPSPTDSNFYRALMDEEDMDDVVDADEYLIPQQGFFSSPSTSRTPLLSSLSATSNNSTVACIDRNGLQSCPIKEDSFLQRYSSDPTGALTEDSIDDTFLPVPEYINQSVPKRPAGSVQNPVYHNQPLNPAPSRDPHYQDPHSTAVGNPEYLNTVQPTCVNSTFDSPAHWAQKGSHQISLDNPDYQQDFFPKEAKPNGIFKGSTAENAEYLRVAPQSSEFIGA
Chain of pp60^c-src (P12931 whole entry): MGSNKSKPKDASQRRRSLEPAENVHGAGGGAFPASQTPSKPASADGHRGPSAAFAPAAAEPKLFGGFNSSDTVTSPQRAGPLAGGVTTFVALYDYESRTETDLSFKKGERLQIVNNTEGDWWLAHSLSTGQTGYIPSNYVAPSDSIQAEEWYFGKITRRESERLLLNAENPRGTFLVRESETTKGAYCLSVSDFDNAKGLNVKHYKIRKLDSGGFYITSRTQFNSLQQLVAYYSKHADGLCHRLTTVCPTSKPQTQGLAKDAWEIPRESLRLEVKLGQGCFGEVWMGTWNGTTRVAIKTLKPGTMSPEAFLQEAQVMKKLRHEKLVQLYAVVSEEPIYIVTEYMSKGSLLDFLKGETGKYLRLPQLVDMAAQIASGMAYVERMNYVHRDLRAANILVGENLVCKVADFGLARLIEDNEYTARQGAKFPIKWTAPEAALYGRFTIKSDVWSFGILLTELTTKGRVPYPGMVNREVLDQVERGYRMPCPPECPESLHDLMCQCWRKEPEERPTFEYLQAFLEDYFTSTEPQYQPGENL

Compound: O=C(NCc1cc(C(F)(F)F)ccc1F)c1cc2cc(F)ccc2[nH]1 [Compound 1aaa]
PTP-1B @ 10 μm (PTP-1B): 12%

Compound: CC[C@H](C)[C@H](NC(=O)[C@H](CB(O)O)NC(=O)CNC(=O)[C@H](CCCNC(=N)N)NC(=O)[C@H](CCCNC(=N)N)NC(C)=O)C(N)=O [Compound 21] (Ac-RRG[X1]I-NH2)
inhibition at 100 µM (pp60^c-src; [3]): 54% | inhibition at 500 µM (PKA [1]; 500 μM inhibitor, L, 4 h preincubation): 34% | Ki (PKA [1]): ~9 µM | IC50 (PKA [1]; [4]): 249 µM | % sti (stimulation) (PKA [2]; 4 h preincubation): 19% | % sti (stimulation) (PKA [2]; 4 h preincubation, listed as drawing 32): *2000 μM 19% sti | IC50 (PKA [2]; [5]): 764 µM

Compound: COC(=O)c1cc2ccc(O)cc2cc1O
inhibition at 100 µM (pp60^c-src; [6]): 47%

Compound: O=C(NCc1ccc(Br)cc1)c1cc2cc(F)ccc2[nH]1 [Compound 1kkkk]
EGFRTK @ 10 μm (EGFRTK): 30%

Compound: CC[C@H](C)[C@H](NC(=O)[C@H](CCB(O)O)NC(=O)CNC(=O)[C@H](CCCNC(=N)N)NC(=O)[C@H](CCCNC(=N)N)NC(C)=O)C(N)=O [Compound 23] (Ac-RRG[X3]I-NH2)
IC50 (PKA [1]; [7]): 133 µM | IC50 (PKA [1]; [4]): 398 µM | inhibition at 2000 µM (PKA [2]; 0 h preincubation): 16% | % sti (stimulation) (PKA [2]; 4 h preincubation): 5% | inhibition at 2000 µM (PKA [2]; 4 h preincubation): 5%

Compound: Ac-RRGAI-NH2 [Compound 20]
IC50 (PKA [1]; [7]): 417 µM | Ki (PKA [1]): ~9 µM and 9 µM | IC50 (PKA [1]; [4]): 278 µM | Ki (PKA [2]; Cellular Mimetic (C) conditions): 25 µM | IC50 (PKA [2]; [5]): 41 µM | IC50 (PKA [2]; IC50 μM (cond. C, 4 h preincubation), 4 h preincubation): 50 µM

Compound: O=C(Nc1cccc(O)c1)c1ccc2cc(O)ccc2c1
inhibition at 100 µM (pp60^c-src; [6]): 45%

Compound: O=S(=O)(O)Nc1ccc2ccccc2c1 [Compound 28]
IC50 (pp60^c-src): 1600 µM | Ki (pp60^c-src; Ki, Table IV): 963 µM | inhibition at 1000 µM (pp60^c-src; read-out: % Inhibition of 2 mM RR-src at Inhibitor Concentration (1 mM)): 31%

Compound: CC[C@H](C)[C@H](NC(=O)[C@@H](CB(O)O)NC(=O)CNC(=O)[C@H](CCCNC(=N)N)NC(=O)[C@H](CCCNC(=N)N)NC(C)=O)C(N)=O [Compound 22] (Ac-RRG[X2]I-NH2)
IC50 (PKA [1]; [7]): 65 µM | IC50 (PKA [1]; [4]): 81 µM | % sti (stimulation) (PKA [2]; 4 h preincubation): 71% | % sti (stimulation) (PKA [2]; 4 h preincubation, listed as drawing 33): *2000 μM 71% sti | IC50 (PKA [2]; [5]): 1750 µM

Compound: N=c1oc2c(O)cccc2cc1C(=O)Nc1cccc(O)c1 [Compound 50, reference compound]
% Inhibition of 2 mM RR-src at Inhibitor Concentration (100 μM) (pp60^c-src; Table V, inhibitor 100 μM): 30 (100 μM) % | inhibition at 100 µM (pp60^c-src; [6]): 30%

Compound: COc1cc(CNC(=O)c2cc3cc(F)ccc3[nH]2)cc(OC)c1 [Compound 1hhhh]
PTP-1B @ 10 μm (PTP-1B): 17%

Compound: OB(O)c1ccc(-c2ccccc2)cc1
inhibition at 100 µM (pp60^c-src; [6]): 13%

Compound: CC[C@H](C)[C@H](NC(=O)[C@H](CCS(N)(=O)=O)NC(=O)CNC(=O)[C@H](CCCNC(=N)N)NC(=O)[C@H](CCCNC(=N)N)NC(C)=O)C(N)=O [Compound 7] (Ac-RRG[X6]I-NH2)
Ki (PKA [1]): 300 µM

Compound: O=C(Nc1cccc(CO)c1)c1cc2cc(F)ccc2[nH]1 [Compound 1yyy]
EGFRTK @ 10 μm (EGFRTK): 11%

Second part, the compound after the results:

EGFRTK @ 10 μm (EGFRTK): 10%
Compound: O=C(NCc1cc(Br)ccc1F)c1[nH]c2ccc(F)cc2c1-c1ccccc1 [Compound 2ll]

EGFRTK @ 10 μm (EGFRTK): 16%
Compound: COc1ccc(CNC(=O)c2cc3cc(F)ccc3[nH]2)cc1 [Compound 1ee]

% Inhibition at 100 μM (std. dev.) (pp60^c-src; Table IX, hydroxynaphthalene derivatives and published inhibitors): 30 (+/−15) % | inhibition at 100 µM (pp60^c-src; [3]): 30%
Compound: N=c1oc2c(O)cccc2cc1C(=O)Nc1cccc(O)c1 [Iminochromene 9TA, reference compound]

EGFRTK @ 10 μm (EGFRTK): 12%
Compound: O=C(NCc1ccc(F)cc1C(F)(F)F)c1[nH]c2ccc(F)cc2c1-c1ccccc1 [Compound 2hh]

inhibition at 45 µM (pp60^c-src; [ATP] 200 μM): 46% | inhibition at 45 µM (pp60^c-src; [ATP] 1,000 μM): 41% | inhibition at 100 µM (pp60^c-src; read-out: % Inhibition at 100 μM (std. dev.), Table X, hydroxyindole derivatives): 74%
Compound: O=C(NCc1cccc(O)c1)c1cc2cc(O)ccc2[nH]1 [Cmpd 2k]

EGFRTK @ 10 μm (EGFRTK): 41%
Compound: O=C(N[C@@H](c1ccccc1)[C@@H](O)c1ccccc1)c1cc2cc(F)ccc2[nH]1 [Compound 1dd]

PTP-1B @ 10 μm (PTP-1B): 10%
Compound: O=C(NCc1ccccc1Cl)c1cc2cc(F)ccc2[nH]1 [Compound 1yy]

EGFRTK @ 10 μm (EGFRTK): 24%
Compound: O=C(NCc1cccc(I)c1)c1cc2cc(F)ccc2[nH]1 [Compound 1ff]
